We go through 1 molecule from publication PMC6934184, “Selective DNA-PKcs inhibition extends the therapeutic index of localized radiotherapy and chemotherapy” (The Journal of Clinical Investigation, 2019).

This assay has as its target T1, AURKB (Aurora B) (Homo sapiens, UniProt Q96GD4).
T1 construct: purchased Thermo Fisher Scientific (Life Technologies) SelectScreen
In words: SelectScreen Z'LYTE. It counts as biochemical. In outline:
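Compound tested in SelectScreen activity assays, Z'LYTE for CSF1R, CDK1/cyclin B and MAP2K6 and Adapta for CAMK1. ATP for CAMK1 was listed as 10, and Km app was used for CSF1R. Results are expressed in percent.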

Usually inhibition stands for the percentage by which the read-out fell short of the control. A higher inhibition goes with a strong effect.

T1 sequence (Q96GD4 whole entry): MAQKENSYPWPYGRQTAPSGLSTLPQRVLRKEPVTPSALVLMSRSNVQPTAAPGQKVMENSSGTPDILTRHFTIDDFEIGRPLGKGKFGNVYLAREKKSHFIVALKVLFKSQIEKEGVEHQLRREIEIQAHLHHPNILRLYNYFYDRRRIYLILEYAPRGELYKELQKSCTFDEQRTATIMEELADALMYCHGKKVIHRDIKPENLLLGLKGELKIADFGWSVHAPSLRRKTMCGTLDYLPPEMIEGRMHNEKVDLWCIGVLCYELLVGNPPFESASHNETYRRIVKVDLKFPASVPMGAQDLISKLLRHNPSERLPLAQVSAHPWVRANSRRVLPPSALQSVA

Molecule `CN(C(=O)CN1CCOCC1)c1ccc2sc3c(-c4cccc5c(=O)cc(N6CC7CCC(C6)O7)oc45)cccc3c2c1` [NU5455] yielded an inhibition at 1 µM of 1.7%.
